One series has as its system Pyrenophora teres. Kind of series: Activity against net blotch of barley, 1 day protective application. The format is in vivo. The note with it: barley seedlings, efficacy in % of untreated control, evaluated after 6 days.
Series [1] has as its system Puccinia recondita. The series can be described thus: Protective activity against brown rust of wheat. The following applies: wheat seedlings, efficacy in % of untreated control. Format: in vivo.
In the next series the test system is Phytophthora infestans. The format is cell-based. The note with it: 0.25 mg/l; microtiter plate, absorption at 405 nm on day 7.
Another series relates to Botrytis cinerea. The series can be described thus: Activity against gray mold on bell pepper leaves, 1 day protective use. The note with it: 16 mg/l; bell pepper seedlings, efficacy in % of untreated control, evaluated after 5 days. Format: in vivo.
The test system of series [2] is Puccinia recondita. The series can be described thus: Curative activity against brown rust of wheat. The note with it: wheat seedlings, efficacy in % of untreated control, 7 days. Format: in vivo.

As to `CC1CCN(c2c(-c3c(F)cc(F)cc3F)c(Cl)nc3ncnn23)CC1` [5-chloro-7-(4-methylpiperidin-1-yl)-6-(2,4,6-trifluorophenyl)-[1,2,4]triazolo[1,5-a]pyrimidine], the Observed activity with Pyrenophora teres (1 mg/l) stood at 44%. A word on the melting point: it is the temperature of the solid-liquid transition. For `Cc1nn(C)c(Cl)c1C(=O)Nc1ccccc1-c1ccc(C(F)(F)F)cc1` [No. I.5, N-(4′-trifluoromethylbiphenyl-2-yl)-1,3-dimethyl-5-chloro-1H-pyrazole-4-carboxamide], the melting point is 173 to 175 °C.

Compound `Cn1nc(C(F)(F)F)c(C(=O)Nc2ccccc2-c2ccc(C(F)(F)F)cc2)c1F` [No. I.3, N-(4′-trifluoromethylbiphenyl-2-yl)-1-methyl-3-trifluoromethyl-5-fluoro-1H-pyrazole-4-carboxamide] registered a melting point of 170 to 173 °C. In the series with Pyrenophora teres (16 mg/l), “zinc ammoniate ethylenebis(dithiocarbamate) [metiram]” came in with an Observed activity of 0%. Consider `COc1cc(C)c(C(=O)c2c(OC)ccc(Br)c2C)c(OC)c1OC` [metrafenone, 3′-bromo-2,3,4,6′-tetramethoxy-2′,6-dimethylbenzophenone], for which the Observed activity in the series on Pyrenophora teres (4 mg/l) is recorded as 0%. Besides, in the series on Puccinia recondita [1] (63 mg/l), the “Observed efficacy (% of untreated control)” value is listed as 0%. Take `CC1(C)CC/C(=C\c2ccc(Cl)cc2)C1(O)Cn1cncn1` (stereo not shown) [triticonazole, (5E)-5-[(4-chlorophenyl)methylene]-2,2-dimethyl-1-(1H-1,2,4-triazol-1-ylmethyl)cyclopentanol, reference compound]: in the series with Phytophthora infestans, the “Observed activity (% infection)” value is 0%. In turn, `Cc1nn(C)cc1C(=O)Nc1ccccc1-c1ccc(C(F)(F)F)cc1` [No. I.6, N-(4′-trifluoromethylbiphenyl-2-yl)-1,3-dimethyl-1H-pyrazole-4-carboxamide] displayed a melting point of 174 to 177 °C. As to `COC(=O)N(OC)c1ccccc1COc1ccn(-c2ccc(Cl)cc2)n1` [pyraclostrobin, methyl N-{2-[1-(4-chlorophenyl)-1H-pyrazol-3-yloxymethyl]phenyl}(N-methoxy)carbamate, reference compound], the “Observed efficacy (% of untreated control)” value in the series on Botrytis cinerea amounted to 10%.

As to `COc1ccc(C(=CC(=O)N2CCOCC2)c2ccc(Cl)cc2)cc1OC` [dimethomorph, 3-(4-chlorophenyl)-3-(3,4-dimethoxyphenyl)-1-morpholin-4-yl-propenone], the Observed activity with Pyrenophora teres (16 mg/l) turned out to be 0%. Besides, the “Observed efficacy (% of untreated control)” value in the series on Puccinia recondita [1] (63 mg/l) was 0%. `Cn1nc(Cl)c(C(=O)Nc2ccccc2-c2ccc(C(F)(F)F)cc2)c1C(F)F` [No. I.8, N-(4′-trifluoromethylbiphenyl-2-yl)-1-methyl-3-chlorodifluoromethyl-1H-pyrazole-4-carboxamide]: the melting point lay in the range of 193 to 196 °C.

`N#Cc1c(Cl)c(Cl)c(Cl)c(C#N)c1Cl` [chlorthalonil, 2,4,5,6-tetrachloroisophthalonitrile, reference compound] showed an Observed activity in the series with Pyrenophora teres (16 mg/l) of 0%. The “Observed activity (efficacy, % of untreated control)” value in the series with Puccinia recondita [2] (16 mg/l) is 0%. As for `Cn1cc(C(=O)Nc2ccccc2-c2ccc(C(F)(F)F)cc2)c(CF)n1` [No. I.7, N-(4′-trifluoromethylbiphenyl-2-yl)-1-methyl-3-fluoromethyl-1H-pyrazole-4-carboxamide], the melting point lay within 156 to 158 °C. `Cn1cc(C(=O)Nc2ccccc2-c2ccc(C(F)(F)F)cc2)c(C(F)F)n1` [No. I.2, N-(4′-trifluoromethylbiphenyl-2-yl)-3-difluoromethyl-1-methyl-1H-pyrazole-4-carboxamide] had a melting point of 164 to 165 °C. Moreover, the “Observed efficacy (% of untreated control)” value in the series on Botrytis cinerea came out at 70%. Moreover, the “Observed activity (efficacy, % of untreated control)” value in the series with Puccinia recondita [2] (0.25 mg/l) is listed as 0%. The “Observed activity (efficacy, % of untreated control)” value in the series on Puccinia recondita [2] (1 mg/l) is 56%. Besides, in the series on Puccinia recondita [1] (16 mg/l), the “Observed efficacy (% of untreated control)” value was 0%.

As for `Cn1cc(C(=O)Nc2ccccc2-c2ccc(C(F)(F)F)cc2)c(C(F)(F)F)n1` [No. I.1, N-(4′-trifluoromethylbiphenyl-2-yl)-1-methyl-3-trifluoromethyl-1H-pyrazole-4-carboxamide], the melting point lay within 175 to 177 °C. The same compound had an Observed activity in the series on Pyrenophora teres (0.25 mg/l) of 11%. The Observed activity with Pyrenophora teres (1 mg/l) was 56%. The “Observed activity (% infection)” value with Phytophthora infestans was 3%. Take `Fc1ccc([C@]2(Cn3cncn3)O[C@H]2c2ccccc2Cl)cc1` (racemic) [epoxiconazole, (2RS,3SR)-1-[3-(2-chlorophenyl)-2,3-epoxy-2-(4-fluorophenyl)propyl]-1H-1,2,4-triazole, reference compound]: the “Observed activity (efficacy, % of untreated control)” value with Puccinia recondita [2] (0.063 mg/l) amounted to 0%.

Source of the values: US20090203523A1, “Fungicidal Mixtures Made From 1-Methylpyrazol-4-Ylcarboxanilides” (BASF AKTIENGESSELLSCHFT, priority 2005, published 2009).
